The results in this text go back to patent US11325938B2, “CD73 inhibitors” (ORIC Pharmaceuticals, Inc., priority 2018, dated 2022).

Structures are written as SMILES.

In general, IC50 refers to the point on the concentration scale where inhibition reaches its midpoint. Higher therefore signals a need for much substance.

The assay deals with CD73 (Homo sapiens (Human), UniProt P21589). Put plainly: Biochemical assay: inhibition of CD73 activity (AMP hydrolysis, Malachite Green readout). The following applies: CD73 0.3208 nM, AMP 15 μM, 25 mM Tris-HCl pH 7.4, RT, absorbance 620 nm. The method, then:
Example A1: Biochemical Assay
Assay Reaction Conditions
• Assay Volume: 70 μl • Reaction Volume: 50 μl • CD73: 0.3208 nM • AMP: 15 μM • Assay Buffer: 25 mM Tris-HCL, pH 7.4, 0.01% Brij-35, 0.01% BSA, 5 mM MgCl2 Assay Procedure:
Made dose titration of testing compounds in assay buffer, 10 points ½ log titrations in duplicates starting at 100 μM.
Added 25 μl of CD73 to each well for a final concentration of 320 pM.
Incubated at RT for 15 min.
Added 25 μl of AMP to each well for a final concentration of 15 μM.
Incubated at RT for 10 min.
Added 10 μl of Malachite Green Reagent A, incubate at RT for 10 min.
Added 10 of Malachite Green Reagent B, incubate at RT for 45 min.
Read the Absorbance on Envision plate reader using excitation filter: Cy5 […].
The ability of the compounds disclosed herein to inhibit CD73 activity was quantified and the respective IC50 values were determined. Table 2 provides the biochemical IC50 values of compounds disclosed herein.

Chain of CD73 (P21589 27-574): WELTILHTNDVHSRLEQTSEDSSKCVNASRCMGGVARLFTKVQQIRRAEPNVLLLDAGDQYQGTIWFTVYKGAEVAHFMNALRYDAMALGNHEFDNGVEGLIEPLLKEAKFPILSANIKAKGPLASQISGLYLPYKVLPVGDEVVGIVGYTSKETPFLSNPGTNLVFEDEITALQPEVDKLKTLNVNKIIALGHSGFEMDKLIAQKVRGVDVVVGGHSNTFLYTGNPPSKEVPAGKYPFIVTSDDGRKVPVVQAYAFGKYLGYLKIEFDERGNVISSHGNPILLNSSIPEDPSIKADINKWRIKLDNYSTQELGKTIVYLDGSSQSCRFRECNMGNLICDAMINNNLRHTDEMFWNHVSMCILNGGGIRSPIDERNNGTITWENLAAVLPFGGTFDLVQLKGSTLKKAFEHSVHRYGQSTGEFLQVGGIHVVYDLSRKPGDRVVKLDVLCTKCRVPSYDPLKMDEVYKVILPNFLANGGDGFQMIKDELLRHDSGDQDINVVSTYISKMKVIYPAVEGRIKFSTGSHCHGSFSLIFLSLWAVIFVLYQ

Compound `CC(CO)(OC[C@H]1O[C@@H](n2cnc3c(NC4CCCC4)nc(Cl)nc32)[C@H](O)[C@@H]1O)P(=O)(O)O` (stereo partly drawn) [Example 76, (2-(((2R,3S,4R,5R)-5-(2-chloro-6-(cyclopentylamino)-9H-purin-9-yl)-3,4-dihydroxytetrahydrofuran-2-yl)methoxy)-1-hydroxypropan-2-yl)phosphonic acid] returned an IC50 not above 0.1 µM.

Compound `NC(=O)OC[C@](CO)(OC[C@H]1O[C@@H](n2ncc3c(NC4CCCC4)nc(Cl)nc32)[C@H](O)[C@@H]1O)P(=O)(O)O` (racemic) [Example 216, rac-((R)-1-(carbamoyloxy)-2-(((2R,3S,4R,5R)-5-(6-chloro-4-(cyclopentylamino)-1H-pyrazolo[3,4-d]pyrimidin-1-yl)-3,4-dihydroxytetrahydrofuran-2-yl)methoxy)-3-hydroxypropan-2-yl)phosphonic acid] returned an IC50 not above 0.1 µM.

In turn, `COC[C@@H](OC[C@H]1O[C@@H](n2nnc3c(NC4CCCC4)cc(Cl)nc32)[C@H](O)[C@@H]1O)P(=O)(O)O` [Example 161, ((S)-1-(((2R,3S,4R,5R)-5-(5-chloro-7-(cyclopentylamino)-3H-[1,2,3]triazolo[4,5-b]pyridin-3-yl)-3,4-dihydroxytetrahydrofuran-2-yl)methoxy)-2-methoxyethyl)phosphonic acid] showed a half-inhibitory concentration (IC50) not above 0.1 µM.

`COCC(COC)(OC[C@H]1O[C@@H](n2ncc3c(NCC4CC4)nc(Cl)nc32)[C@H](O)[C@@H]1O)P(=O)(O)O` [Example 125, (2-(((2R,3S,4R,5R)-5-(6-chloro-4-((cyclopropylmethyl)amino)-1H-pyrazolo[3,4-d]pyrimidin-1-yl)-3,4-dihydroxytetrahydrofuran-2-yl)methoxy)-1,3-dimethoxypropan-2-yl)phosphonic acid] had an IC50 not above 0.1 µM.

The compound `O=P(O)(O)C(CO)OC[C@H]1O[C@@H](n2ncc3c(N[C@H]4CCc5ccccc54)nc(Cl)nc32)[C@H](O)[C@@H]1O` (stereo partly drawn) [Example 39, (1-(((2R,3S,4R,5R)-5-(6-chloro-4-(((S)-2,3-dihydro-1H-inden-1-yl)amino)-1H-pyrazolo[3,4-d]pyrimidin-1-yl)-3,4-dihydroxytetrahydrofuran-2-yl)methoxy)-2-hydroxyethyl)phosphonic acid] gave an IC50 not above 0.1 µM.

`CC(CCO)(OC[C@H]1O[C@@H](n2ncc3c(NC4CCCC4)nc(Cl)nc32)[C@H](O)[C@@H]1O)P(=O)(O)O` (stereo partly drawn) [Example 56, (2-(((2R,3S,4R,5R)-5-(6-Chloro-4-(cyclopentylamino)-1H-pyrazolo[3,4-d]pyrimidin-1-yl)-3,4-dihydroxytetrahydrofuran-2-yl)methoxy)-4-hydroxybutan-2-yl)phosphonic acid] came in with an IC50 not above 0.1 µM.

Turning to `NC(=O)OCC(CO)(OC[C@H]1O[C@@H](n2ncc3c(NC4CCCC4)nc(Cl)nc32)[C@H](O)[C@@H]1O)P(=O)(O)O` (mixture of isomers) [Example 178, rac-(1-(carbamoyloxy)-2-(((2R,3S,4R,5R)-5-(6-chloro-4-(cyclopentylamino)-1H-pyrazolo[3,4-d]pyrimidin-1-yl)-3,4-dihydroxytetrahydrofuran-2-yl)methoxy)-3-hydroxypropan-2-yl)phosphonic acid], the IC50 is not above 0.1 µM.

As for `O=P(O)(O)[C@@H](Cc1ccccc1)S(=O)(=O)C[C@H]1O[C@@H](n2ncc3c(NC4CCCC4)nc(Cl)nc32)[C@H](O)[C@@H]1O` [Example 10, ((R)-1-((((2S,3S,4R,5R)-5-(6-chloro-4-(cyclopentylamino)-1H-pyrazolo[3,4-d]pyrimidin-1-yl)-3,4-dihydroxytetrahydrofuran-2-yl)methyl)sulfonyl)-2-phenylethyl)phosphonic acid], the IC50 is not above 0.1 µM.

The compound `O=P(O)(O)C(CO)OC[C@@H]1C[C@@H](O)[C@H](n2ncc3c(NC4CCCC4)nc(Cl)nc32)O1` (stereo partly drawn) [Example 40, (1-(((2S,4R,5R)-5-(6-chloro-4-(cyclopentylamino)-1H-pyrazolo[3,4-d]pyrimidin-1-yl)-4-hydroxytetrahydrofuran-2-yl)methoxy)-2-hydroxyethyl)phosphonic acid] showed an IC50 not above 0.1 µM.

For the compound `O=P(O)(O)C(CO)(CO)OC[C@H]1O[C@@H](n2ncc3c(NC4CCCC4)nc(Cl)nc32)[C@H](O)[C@@H]1O` [Example 86, [1-[[(2R,3S,4R,5R)-5-[6-Chloro-4-(cyclopentylamino)pyrazolo[3,4-d]pyrimidin-1-yl]-3,4-dihydroxy-tetrahydrofuran-2-yl]methoxy]-2-hydroxy-1-(hydroxymethyl)ethyl]phosphonic acid], the IC50 was not above 0.1 µM.

Turning to `CCS(=O)(=O)C[C@](C)(OC[C@H]1O[C@@H](n2ncc3c(NC4CCCC4)nc(Cl)nc32)[C@H](O)[C@@H]1O)P(=O)(O)O` [Example 137, ((R)-2-(((2R,3S,4R,5R)-5-(6-chloro-4-(cyclopentylamino)-1H-pyrazolo[3,4-d]pyrimidin-1-yl)-3,4-dihydroxytetrahydrofuran-2-yl)methoxy)-1-(ethylsulfonyl)propan-2-yl)phosphonic acid], the IC50 was not above 0.1 µM.

Regarding `O=P(O)(O)C(CO)(CO)OC[C@H]1O[C@H](n2ncc3c(NCc4ccc(Cl)cc4)nc(Cl)nc32)[C@H](O)[C@@H]1O` (racemic) [Example 203, rac-(2-(((2R,3S,4R,5S)-5-(6-chloro-4-((4-chlorobenzyl)amino)-1H-pyrazolo[3,4-d]pyrimidin-1-yl)-3,4-dihydroxytetrahydrofuran-2-yl)methoxy)-1,3-dihydroxypropan-2-yl)phosphonic acid], the IC50 is not above 0.1 µM.

Compound `O=C(O)c1ccc(C[C@@](CO)(OC[C@H]2O[C@@H](n3ncc4c(NC5CCCC5)nc(Cl)nc43)[C@H](O)[C@@H]2O)P(=O)(O)O)cc1` (racemic) [Example 187, rac-4-((R)-2-(((2R,3S,4R,5R)-5-(6-chloro-4-(cyclopentylamino)-1H-pyrazolo[3,4-d]pyrimidin-1-yl)-3,4-dihydroxytetrahydrofuran-2-yl)methoxy)-3-hydroxy-2-phosphonopropyl)benzoic acid] came in with an IC50 of 0.1 to 1 µM.

Compound `O=P(O)(O)[C@@](CO)(Cc1nn[nH]n1)OC[C@H]1O[C@@H](n2ncc3c(NC4CCC4)nc(Cl)nc32)[C@H](O)[C@@H]1O` (racemic) [Example 213, rac-((R)-2-(((2R,3S,4R,5R)-5-(6-chloro-4-(cyclobutylamino)-1H-pyrazolo[3,4-d]pyrimidin-1-yl)-3,4-dihydroxytetrahydrofuran-2-yl)methoxy)-1-hydroxy-3-(2H-tetrazol-5-yl)propan-2-yl)phosphonic acid] showed an IC50 not above 0.1 µM.

As to `O=P(O)(O)C(CO)(Cc1ncccn1)OC[C@H]1O[C@@H](n2ncc3c(NC4CCCC4)nc(Cl)nc32)[C@H](O)[C@@H]1O` (mixture of isomers) [Example 168, rac-(2-(((2R,3S,4R,5R)-5-(6-chloro-4-(cyclopentylamino)-1H-pyrazolo[3,4-d]pyrimidin-1-yl)-3,4-dihydroxytetrahydrofuran-2-yl)methoxy)-1-hydroxy-3-(pyrimidin-2-yl)propan-2-yl)phosphonic acid], the concentration for half-maximal inhibition (IC50) is not above 0.1 µM.

Take `COCC(C)(OC[C@H]1O[C@@H](n2ncc3c(NCC4CC4)nc(Cl)nc32)[C@H](O)[C@@H]1O)P(=O)(O)O` (stereo partly drawn) [Example 79, (2-(((2R,3S,4R,5R)-5-(6-chloro-4-((cyclopropylmethyl)amino)-1H-pyrazolo[3,4-d]pyrimidin-1-yl)-3,4-dihydroxytetrahydrofuran-2-yl)methoxy)-1-methoxypropan-2-yl)phosphonic acid]: the IC50 is not above 0.1 µM.

With `O=P(O)(O)COC[C@H]1O[C@@H](n2nnc3c(NCC4CC4)cc(Cl)nc32)[C@H](O)[C@@H]1O` [Example 21, ((((2R,3S,4R,5R)-5-(5-chloro-7-((cyclopropylmethyl)amino)-3H-[1,2,3]triazolo[4,5-b]pyridin-3-yl)-3,4-dihydroxytetrahydrofuran-2-yl)methoxy)methyl)phosphonic acid], the IC50 was not above 0.1 µM.

`CC#CC[C@@](CO)(OC[C@H]1O[C@@H](n2ncc3c(NC4CCCC4)nc(Cl)nc32)[C@H](O)[C@@H]1O)P(=O)(O)O` [Example 97, ((R)-2-(((2R,3S,4R,5R)-5-(6-chloro-4-(cyclopentylamino)-1H-pyrazolo[3,4-d]pyrimidin-1-yl)-3,4-dihydroxytetrahydrofuran-2-yl)methoxy)-1-hydroxyhex-4-yn-2-yl)phosphonic acid] showed an IC50 not above 0.1 µM.

In turn, `O=P(O)(O)C(CO)(CCO)OC[C@H]1O[C@@H](n2ncc3c(NC4CCCC4)nc(Cl)nc32)[C@H](O)[C@@H]1O` (stereo partly drawn) [Example 36, (2-(((2R,3S,4R,5R)-5-(6-chloro-4-(cyclopentylamino)-1H-pyrazolo[3,4-d]pyrimidin-1-yl)-3,4-dihydroxytetrahydrofuran-2-yl)methoxy)-1,4-dihydroxybutan-2-yl)phosphonic acid] registered a half-inhibitory concentration (IC50) not above 0.1 µM.

As for `O=P(O)(O)C(CO)(COCC(F)(F)F)OC[C@H]1O[C@@H](n2ncc3c(NC4CCCC4)nc(Cl)nc32)[C@H](O)[C@@H]1O` (mixture of isomers) [Example 208, rac-(2-(((2R,3S,4R,5R)-5-(6-chloro-4-(cyclopentylamino)-1H-pyrazolo[3,4-d]pyrimidin-1-yl)-3,4-dihydroxytetrahydrofuran-2-yl)methoxy)-1-hydroxy-3-(2,2,2-trifluoroethoxy)propan-2-yl)phosphonic acid], the IC50 is not above 0.1 µM.
